Assays:
[1] = tested on: SHP2 phosphorylation in HeLa cells; assay: SHP2 phosphorylation in EGF-stimulated HeLa cells (immunoblotting); format: cell-based; conditions: for effect on the level of SHP2 phosphorylation: 20 µM for 2 h before EGF (10 ng mL^−1); for effect on EGF-induced phosphorylation of SHP2 (Y542 and Y580) and ERK: pretreatment 2 h, SHP099 20 µM, embelin different concentrations, EGF 10 ng mL^−1 2 h
Description: Figure 1 Embelin inhibits KRAS‐mutant tumor development. A) Correlation detection between mRNA expression of PTPN11 and KRAS in patients with LUAD (n = 706) using IlluminaHiSeq analysis with data derived from TCGA database. B) Correlation and number at risk of SHP2 expression with the overall survival probability of KRAS mutant lung cancer patients (n = 92) in the TCGA database. C) Protein expression and phosphorylation levels of SHP2 in RAS‐WT, NRAS, HRAS, and KRAS‐mutant cells. D) Effect of 3471 bioactive compounds at 10 µM against SHP2, with Na3VO4 serving as a control. Z’ factor values for 69 plates screened, Z’ = 0.81, S/N = 40.8. E) Binding energy between candidate drugs and SHP2 full‐length domain, catalytic region, and ΔSHP2 domain. F) HeLa cells were pretreated with DMSO, SHP099, or various compounds at 20 µM for 2 h before stimulation with EGF (10 ng mL^−1) for an additional 2 h. Cell lysates were subjected to immunoblotting with SHP2, p‐SHP2, and GAPDH antibodies. Data are from three independent experiments are presented. G) Spearman's correlation coefficient between drug‐related targets and KRAS mRNA in different types of tumors through the TCGA database. H) BCL2, TPO, RAF1, MCL1, MPL, and XIAP mRNA expression levels in LUAD tumors and adjacent tissues through the TCGA database. I) XIAP protein expression in RAS‐WT, NRAS‐mutant, HRAS‐mutant, and KRAS‐mutant cells. J) Effect of candidate drugs (10 µM) on colony formation in A549, NCI‐H2122, and NCI‐H1944 cells.
Figure 6 Embelin disrupts the SHP2 signaling complex in KRAS‐mutant NSCLC cells. A) HeLa cells were pretreated with SHP099 (20 µM) or different concentrations of embelin for 2 h and stimulated with EGF (10 ng mL^−1) for 2 h, the protein expression of RAS/MAPK signaling pathway in HeLa cells was detected. B) After treatment of embelin and SHP099 (10 µM) in NCI‐H2122 and A549 cells for 12 h, cell lysates were collected. One part was used to measure Gab1, Grb2, and SOS1 expression, and the other part underwent IP with SHP2 antibody. Then, binding of Gab1, Grb2, and SOS1 with SHP2 was detected. C) After treatment of embelin and SHP099 (10 µM) for 24 h, the expression of Gab1, p‐Gab1, Grb2, and SOS1 proteins in A549 and NCI‐H2122 cells were detected. […] Co‐localization of these proteins with SHP2 was detected using IF. […]
After given treatment, cells were lysed by ice bath with radio-immunoprecipitation assay (RIPA) buffer containing 1% phenylmethylsulphonyl fluoride (PMSF), and the supernatant was collected by centrifugation, and the protein concentration was subsequently determined using a BCA Protein Assay Kit. […]

NCI‐H2122 cells = assay: ROS release assay; format: cell-based, human; conditions: 24 h
Description: incubated with a horseradish peroxidase (HRP)-conjugated secondary antibody at room
temperature for 2 h and then incubated with enhanced chemiluminescence (ECL) solutions for
15 s at room temperature. A fully automated gel imaging system (General Electric Company,
USA) was used for the exposure imaging.
NCI-H2122 cells were inoculated into 96-well plates specialized for high-content cell
imaging, treated with various drugs, fixed with 4% neutral formaldehyde, and sealed with 5%
BSA after permeabilization with 0.05% Triton X-100. Subsequently, the cells were incubated
with the given primary antibody overnight at 4 °C and then with corresponding fluorescent
secondary antibody in dark at room temperature for 1 h. […] (DAPI)
was applied to nuclear staining. Fluorescence images were captured using a high-content
analyzer (Thermo Scientific, USA).
NCI-H2122 cells treated with the given disposal were digested with trypsin, resuspended
in cold PBS, and centrifuged at room temperature (1000×g for 5 min) to discard the
supernatant. […]
RNaseA) was incubated in dark at 37℃ for 30 min. Red fluorescence and light scattering
were detected by flow cytometry at 488 nm. Cell cycle results were analyzed and visualized […]
intracellular ROS levels were detected by flow cytometry (λa = 488 nm, λe = 525 nm). […]
sealed with a DAPI-containing anti-fluorescence quenching sealer for 30 min at room […]

SMILES	effect on the level of SHP2 phosphorylation [1]	effect on EGF-induced phosphorylation of SHP2 (Y542 and Y580) and ERK [1]	effect on ROS release (NCI‐H2122 cells)
CCCCCCCCCCCC1=C(O)C(=O)C=C(O)C1=O [Embelin]	significantly inhibited SHP2 phosphorylation	significantly inhibited these phosphorylation levels	promoted ROS release
O=C1Nc2ccc(I)cc2/C1=C/c1cc(Br)c(O)c(Br)c1 [S2872, GW5074]	significantly inhibited SHP2 phosphorylation	–	–
CC1(N)CCN(c2cnc(-c3cccc(Cl)c3Cl)c(N)n2)CC1 [SHP099]	–	significantly inhibited these phosphorylation levels	promoted ROS release
